#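 Test compounds were applied to cells in 96-well plates for 48 hours at 5 doses. GI50: concentration for 50% inhibition of growth. The concentration for full growth arrest is given as TGI.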
# Legend:
# Test in all cases: NCI anticancer screen, dose series, 48 h
# CAKI-1 renal = tested on: CAKI-1 renal
# CCRF-CEM leukemia = tested on: CCRF-CEM leukemia
# HT29 colon = tested on: HT29 colon
# OVCAR-3 ovarian = tested on: OVCAR-3 ovarian
# RXF 393 renal = tested on: RXF 393 renal
# SF-295 CNS = tested on: SF-295 CNS
# SNB-19 CNS = tested on: SNB-19 CNS
# T-47D breast = tested on: T-47D breast
# UACC-257 melanoma = tested on: UACC-257 melanoma
# UACC-62 melanoma = tested on: UACC-62 melanoma
SMILES,GI50 (CAKI-1 renal) [µM],TGI (CAKI-1 renal) [µM],GI50 (CCRF-CEM leukemia) [µM],TGI (CCRF-CEM leukemia) [µM],GI50 (HT29 colon) [µM],TGI (HT29 colon) [µM],GI50 (OVCAR-3 ovarian) [µM],TGI (OVCAR-3 ovarian) [µM],GI50 (RXF 393 renal) [µM],TGI (RXF 393 renal) [µM],GI50 (SF-295 CNS) [µM],TGI (SF-295 CNS) [µM],GI50 (SNB-19 CNS) [µM],TGI (SNB-19 CNS) [µM],GI50 (T-47D breast) [µM],TGI (T-47D breast) [µM],GI50 (UACC-257 melanoma) [µM],TGI (UACC-257 melanoma) [µM],GI50 (UACC-62 melanoma) [µM],TGI (UACC-62 melanoma) [µM]
OC(COc1cccc2ccccc12)CN1CCN(c2ccccc2Cl)CC1 (stereo unspecified),7.23,22.7,11.4,69.1,3.3,12.5,13.9,27.6,16.5,30.8,11.9,26.9,14.5,30.2,13.9,29.6,16.5,31,12.2,24.8
COc1ccc2c(c1)CC[C@@H]1[C@@H]2CC[C@]2(C)C=C(/C=C/C(=O)c3ccccc3)C[C@@H]12,20.3,38.3,32.6,84.7,17,35.7,16.2,31.7,17.5,34.5,17.5,34,16.8,31.5,12,30.1,16.2,34.6,13.8,27.2
CC1(C)[C@@H](OC(N)=O)C=C[C@]2(C=O)[C@H]3CC[C@]4(C)[C@@H](c5ccc(=O)oc5)[C@@H](Cl)C[C@]4(O)C3=CC[C@@H]12,0.00446,0.00846,0.00384,0.0117,0.00521,0.011,0.00329,0.00828,0.00561,0.0157,0.00502,0.0111,0.00782,0.0253,0.00635,0.0175,0.00565,0.0141,0.00491,0.0105
Cc1c(C(=O)O[C@H]2[C@@H]3[C@H](C)CC[C@H]3[C@]3(C)O[C@@]2(C2CCCCC2)C[C@H]3OC(=O)CO)ccc2ccccc12,0.244,6.82,9.13,20.9,7.07,14.2,7.57,14.4,0.164,7.12,7.04,13.6,8.56,15.6,5.37,11.6,7.83,14.8,7.97,15.1
CCOC(=S)SCN1C(=O)c2ccccc2S1(=O)=O,13,27.6,16.3,39.4,14,45.9,0.0358,17.3,6.97,21.6,18,59.2,28.7,88.8,24.2,80.5,18.5,55.2,20,38
CCCn1c(N)c(C(=O)CNc2ccc(I)cc2)c(=O)[nH]c1=O,6.53,> 100,0.543,> 100,1.23,> 100,> 48.4,> 100,21.5,> 100,0.795,> 63.6,2.02,> 59.5,> 100,> 100,,> 100,1.15,> 100
C1CC[N-]CC1.CC(=N\O)/C(C)=N/O.CC(=N\O)/C(C)=N/O.[CH2-]CCN1CCOCC1.[Co+2],> 100,> 100,,,> 100,> 100,> 100,> 100,> 100,> 100,> 100,> 100,> 100,> 100,> 100,> 100,98.1,> 100,> 100,> 100
C#Cc1cc2c(N)c(C(=O)c3cc(OC)c(OC)c(OC)c3)[nH]c2cc1OC,0.573,> 100,0.63,> 100,0.374,76.2,,,,,,,0.73,> 100,0.449,54.7,0.532,> 100,2.77,> 100
Nc1c(C(=O)Nc2cccc(Br)c2)sc2nc3c(cc12)C(O)CCC3 (stereo unspecified),0.439,> 100,0.357,> 74.9,0.319,11,0.32,3.08,0.361,6.26,0.314,16.2,2.52,53.9,13.9,> 100,,,0.41,> 94.9
COc1ccc(NC(=O)/C=C(C)/C=C/C=C(C)\C=C\C2=C(C)CCCC2(C)C)cc1,,,48,> 100,41.2,> 100,70.4,> 100,25.5,76.1,35.7,> 100,> 100,> 100,3.79,43.1,14.1,> 100,24.6,> 100
O=C(NCCCCOCC#Cc1ccccc1C#CCS(=O)(=O)c1ccccc1)c1cc2ccccc2[nH]1,14.9,> 38.2,,,13.7,> 50,14,> 35,12.2,38.5,15.9,> 44.7,15.1,> 50,12.3,> 37.5,22.4,> 50,8.29,16.6
NS(=O)(=O)c1ccc(NC(=O)Nc2ccccc2F)cc1,,> 100,,,,> 100,,> 100,,> 100,,> 100,,> 100,,> 100,,> 100,,> 100
COC(=O)[C@]12CC[C@@H](C)[C@H](C)[C@@H]1C1=CC[C@@H]3[C@@]4(C)CC(=O)[C@H](OC(=O)c5ccco5)[C@@]5(C)COC(=C45)C[C@@]3(C)[C@]1(C)CC2,0.729,> 100,0.767,> 100,0.523,> 100,2.74,> 100,67.9,> 100,28.3,> 100,3.57,> 100,0.667,> 100,0.352,2.93,,
O=C(CC(=O)c1ccccc1)c1ccccc1,20.1,66,,,30.1,> 100,16.2,53.5,22,88,17.3,99.7,27,> 100,14.9,46.1,23.6,84.5,21.7,77.5
C#CCN(Cc1nc2cc(C(F)(F)F)ccc2nc1-c1ccccc1)c1ccc(F)c(F)c1,,,24,> 100,41.1,> 100,13.9,61.8,22.9,92.5,39.7,> 100,92.5,> 100,63.5,> 100,40.5,64.9,44.5,> 100
O=C(c1ccccc1)C1C(C(=O)c2ccccc2)C(c2ccccc2)N(c2ccccc2)C1c1ccccc1 (stereo unspecified),,> 100,,> 100,,,,> 100,,> 100,,> 100,,> 100,,> 100,,> 100,,> 100
COc1cc([C@@H]2c3cc4c(cc3C(OC3O[C@@H]5COC(C)O[C@H]5[C@H](O)[C@H]3O)C3COC(=O)[C@@H]32)OCO4)cc(OC)c1O (stereo partly specified),1.83,> 28.1,,,5.42,20.3,4.8,> 28,0.982,8.31,0.72,9.83,0.836,> 47.9,0.331,> 33.1,2.12,> 50,0.868,> 44.9
COc1cc(-c2nn(-c3ccc(NC(=O)c4cc(Cl)cc(Cl)c4)cc3)cc2-c2ccncc2)ccc1Cl,> 100,> 100,5.77,> 100,3.53,> 100,> 100,> 100,2.14,> 100,,,> 100,> 100,> 100,> 100,> 100,> 100,4.58,> 100
c1ccc2nc(OCCN3CC3)ccc2c1,9.2,28.8,4.4,60.5,,,6.29,22.1,14.6,32.5,11.6,35.4,15.7,43.6,12.4,30.6,16.5,32.8,13,34.1
